Data set [1] in a line: Cyclic voltammetry of the Cu(II)/Cu(I) couple. To be noted: for ΔE: Epc − Epa; for ΔE / │ia/ic│ / E1/2: PBS pH 7.8; for │ia/ic│: peak current ratio; for E1/2 / Epa / Epc: vs NHE; for E1/2: E1/2=(Epc+Epa)/2; for Epa / Epc: PBS 10 mM, 150 mM NaCl, pH 7.8, 0.25 mM complex. In kind it is physicochemical. Here is the method: To assess this behavior, the corresponding redox potentials were measured by cyclic voltammetry (CV), offering key insights into the electron-transfer properties of the complexes. The metal ion redox potential should ideally lie between the potential for oxidation (−0.16 V vs. NHE) (Equation (1)) and reduction (0.89 V vs. NHE) of superoxide radicals (Equation (2)).(1) O2∙−→O2+e^− (2) O2∙−+e^−+H^+→H2O2
The key electrochemical parameters extracted from the cyclic voltammograms are summarized in Table 3, highlighting a similar redox behavior of the complexes with both ligands. However, the nature of the anion appears to influence the properties of the mononuclear species formed in situ, compared with the isolated complexes.
Cyclic voltammetry experiments were carried out using a BAS Cell C3 EC-epsilon potentiostat equipped with a conventional three-electrode system consisting of a glassy carbon working electrode (3 mm diameter, geometric surface 7 mm^2), a platinum wire counter electrode (CE), and a silver/silver chloride reference electrode (Ag/AgCl, 3 M KCl). Voltammograms were recorded in phosphate-buffered saline (PBS; 10 mM, 150 mM NaCl, pH 7.8) containing 0.25 mM of the complex. The measurements were performed within a potential window from −600 mV to +400 mV, employing various scan rates (50 mV/s, 100 mV/s, 200 mV/s, 400 mV/s, and 800 mV/s).

The nature of data set [2]: Peroxidase activity: morin oxidation with H2O2. The following applies: after 16 h with H2O2; [Morin] = 0.16 mM, [Catalyst] = 1.6 μM, [H2O2] = 0.01 M, PBS 50 mM, pH 7.8. In kind it is biochemical. The method, then: Since initial antioxidant evaluations were conducted without incorporating oxidizable substrates, it is therefore essential to assess the behavior of the complexes in the presence of organic substrates. To this aim, we employed two distinct categories of model substrate: morin and o-phenylenediamine (OPD). We evaluated the spectral changes during morin oxidation, i.e., absorbance decreases for the substrate (Figure 7 and Figures S50–S53 in the Supporting Materials) and increase for the 2,3-diaminephenazine (DAP), the product of the oxidative degradation of the OPD (Figures S55–S58 in the Supporting Materials).
Figure 7 Residual absorbance of morin at the maximum absorption (390 nm) after reaction of the complexes with H2O2 for 16 h. [Morin] = 0.16 mM, [Catalyst] = 1.6 μM, [H2O2] = 0.01 M, PBS buffer (50 mM), pH 7.8.
Peroxidase activity was evaluated via UV-Vis spectroscopy by monitoring the time-dependent absorbance changes of oxidized substrates in the presence of H₂O₂ and copper complexes. Two substrates were used: morin and o-phenylenediamine (OPD).
For morin, the oxidative degradation (Figure S49) was evidenced by a decrease in absorbance at 390 nm. […]
The reaction kinetics were monitored over 18 hours with spectra collected every 20 minutes (Figures S50–S53). […]
Figure S50: Absorbance variation of the morine, with the complex Cu(HL1)(ClO 4)2. […]

The nature of data set [3]: CAT-like activity: O2 pressure from hydrogen peroxide dismutation. It is filed as biochemical. More on the design: Rmax: unit not given here. To be noted: [catalyst] = 200 μM, [H2O2] = 20–30 mM in BBS 50 mM, pH = 7.8. The method, then: The studied catalase-like activity of the complexes was evaluated by measuring the pressure resulting from the oxygen produced during the dismutation of the hydrogen peroxide. For this analysis, a borate-based buffer system (BBS 50 mM, pH 7.8) was utilized to avoid the competitive binding of phosphate anions.
Catalytic measurement assays were conducted using a Varian Cary 100 spectrophotometer with a 3 mL quartz cuvette (1 cm path length) for evaluating SOD-like activity. For the assessment of peroxidase-mimicking activity, a Varian Cary 50 instrument and identical cuvettes were utilized. To monitor the CAT-like activity, a 25 mL vial, equipped with a septum for solution injection, was used as a reactor and connected to a pressure transducer. […]
To monitor the CAT-like activity, a 25 mL vial was used as a reactor, connected to a pressure transducer and
a septum for the injection.

Data set [4] can be described thus: SOD activity, indirect cytochrome C (CytC) assay, xanthine/xanthine oxidase. It is filed as biochemical. To be noted: [CytC] = 10 μM, pH = 7.8; for IC50: CytC assay, [xanthine] = 40 μM, [xanthine oxidase] = 0.0053 U/mL, phosphate buffer 50 mM; for Log (kcat): kcat(O2•−)=kCytC·[CytC]/IC50, kCytC=2.6×10^5 M^−1s^−1. Here is the method:
To reduce uncertainty about the actual active species involved in the reaction, the catalytic investigations were made with the isolated species. The ability to catalyze superoxide dismutation was assessed using the indirect cytochrome C-based assay originally introduced by McCord and Fridovich. In this kind of test, the presence of a catalyst with SOD activity, acting as a scavenger for O2^•− and generated via a xanthine/xanthine oxidase system, prevents the electron transfer to cytochrome C (Cyt C) to form […].
Catalytic measurement assays were conducted using a Varian Cary 100 spectrophotometer with a 3 mL quartz cuvette (1 cm path length) for evaluating SOD-like activity. For the assessment of peroxidase-mimicking activity, a Varian Cary 50 instrument and identical cuvettes were utilized. To monitor the CAT-like activity, a 25 mL vial, equipped with a septum for solution injection, was used as a reactor and connected to a pressure transducer.

The nature of data set [5]: UV–Vis monitoring of complex stability during H2O2 dismutation. In kind it is physicochemical. To be noted: for time in which the π→π* absorbance feature fades / changes: complex 200 μM, H2O2 10 mM in BBS 50 mM pH 7.8. The text has this:
The reaction progression was monitored by UV–Vis to gather insights into the stability of the complexes during H2O2 dismutation (Figures S45–S48 in Supplementary Materials). Analyzing the spectra recorded for the systems derived from HL1 and HL5, it is possible to observe changes in the absorption bands. In the case of the mononuclear species containing HL1, the alteration in the absorption band takes place over a comparatively extended period, in agreement with the occurrence of the delay period previously noted. The intensity associated with the π→π * electronic transition progressively diminishes, coinciding with a rise in molecular oxygen generation. Such a trend implies structural reconfiguration within the coordination environment of the complex, which appears necessary to initiate the catalytic event. On the other hand, the characteristic absorption feature vanishes after 4 h as a result of the formation of radical species. The UV–Vis profile of the complex Cu(HL5)(ClO4)2 (Figure S46) undergoes a faster modification.
Figure S46: UV-Vis spectra of Cu(HL5)(ClO4)2 at time 0 (red) and after 7 h (light red). The colours variation represents an increment of 5 min from t=0 to t=15 min, of 15 min from t=15 to t= 45 min and 45 min from t= 45 to t=360 min.
Conditions: [Cu(HL5)(ClO4)2]= 200 uM, [H2O2]=10mM in BBS 50mM pH=7.8. Zoom: temporal trends compared to O2 (red) and Abs (light red) on the maximum absorption at 294 nm.
Figure S47: UV-Vis spectra of Cu2(L1)2(ClO4)2 at time 0 (blue) and after 24 hours (light blue). Every change of colors represents a temporal increase of 90 minutes. Conditions: [Cu2(L1)2(ClO4)2] = 200 µM, [H2O2] = 10 mM in BBS 50 mM, pH = 7.8. Zoom: temporal trends compared to O2 (blue) and Abs (light blue) on the maximum absorption at 288 nm.
Figure S48: UV-Vis spectra of Cu2(L5)2(ClO4)2 at time 0 (dark green) and after 24 hours (light green). Every change of colours represents a temporal increase of 90 minutes. Conditions: [Cu2(L5)2(ClO4)2] = 200 µM, [H2O2] = 10 mM in BBS 50 mM, pH = 7.8. […]

For data set [6] the following is noted: [Catalyst] = 100 μM, [H2O2] = 30 mM, MOPS buffer (50 mM, pH 7.5); cited from earlier work.

Where two headings read alike, the source gives them in different places. Marks after values point to notes of the source that are not given here. Where no end group is shown, it is not given here. A value given as a limit tells only on which side of the number the result lay.

With `COc1cccc(CN(Cc2ccccn2)Cc2ccccn2)c1[O-].COc1cccc(CN(Cc2ccccn2)Cc2ccccn2)c1[O-].[Cu+2].[Cu+2].[O-][Cl+3]([O-])([O-])[O-].[O-][Cl+3]([O-])([O-])[O-]` [Cu2(L5)2(ClO4)2], in data set [1], the ΔE is listed as −0.081 V, the “│ia/ic│” value is recorded as 0.90, the E1/2 is −0.179 V and the Epa was −0.138 V. This compound came in with an Epc in data set [1] of −0.219 V. In addition, the “residual absorbance of morin (390 nm)” value in data set [2] is listed as 40%. For the same compound, in data set [3], the “Time (to maximum O2 production)” value is on record as 950 min. In data set [3] (triplicate, ±10% error), this compound yielded an O2 generated of 7.7 mmol/L and an Rmax of 0.36. In addition, in data set [4], inhibition was half-maximal at 1280 nM (IC50) and the “Log (kcat)” value is listed as 6.31 ^h. Also, the “time in which the π→π* absorbance feature fades / changes” value in data set [5] is at most 90 min.
Regarding `Oc1ccccc1CN(Cc1ccccn1)Cc1ccccn1.[Cu+2].[O-][Cl+3]([O-])([O-])[O-].[O-][Cl+3]([O-])([O-])[O-]` [Cu(HL1)(ClO4)2], in data set [1], the ΔE is −0.085 V, the “│ia/ic│” value amounted to 0.61, the E1/2 is on record as −0.135 V and the Epa is given as −0.092 V. The compound further showed an Epc in data set [1] of −0.177 V. Further, the “Time (to maximum O2 production)” value in data set [3] turned out to be 950 min. Also, in data set [3] (triplicate, ±10% error), the “Induction Time” value is 250 min, the O2 generated stood at 7.6 mmol/L and the Rmax is reported as 0.25. In data set [4], the IC50 (commonly the concentration that inhibits the measured activity by half) worked out at 1410 nM and the “Log (kcat)” value is recorded as 6.27 ^h. The “time after which the characteristic absorption feature vanishes” value in data set [5] (during H2O2 dismutation, BBS 50 mM pH 7.8) is listed as 4 h.
With `COc1cccc(CN(Cc2ccccn2)Cc2ccccn2)c1O.[Cu+2].[O-][Cl+3]([O-])([O-])[O-].[O-][Cl+3]([O-])([O-])[O-]` [Cu(HL5)(ClO4)2], in data set [1], the ΔE was −0.106 V, the “│ia/ic│” value turned out to be 0.52, the E1/2 is −0.149 V and the Epa is reported as −0.096 V. For the same compound, the Epc in data set [1] is on record as −0.202 V. For the same compound, the “residual absorbance of morin (390 nm)” value in data set [2] worked out at 21%. In addition, the “Time (to maximum O2 production)” value in data set [3] amounted to 1300 min. Also, in data set [3] (triplicate, ±10% error), the O2 generated came to 9.8 mmol/L. For the same compound, in data set [4], it took 1040 nM to reach half-maximal inhibition (IC50) and the “Log (kcat)” value is recorded as 6.41 ^h. The “time in which the π→π* absorbance feature fades / changes” value in data set [5] is given as “approximately 60 min”.
Take “(CATm1)Cu2: di-copper complex of CATm1 = peptide sequence PHYKHRLH (also: di-copper complex)”: in data set [6], the O2 generated is reported as 0.3 mmol/L, the Rmax was 273 µM/min and the Time is given as 3 min.

Values taken from paper PMC12388300, “The Chelating Abilities of Tertiary Amines with N-O-Donors Towards Cu(II) Ions and the Catalytic Properties of the Resulting Complexes” (Molecules, 2025).
